Results taken from patent US20020137929A1, “1 - (3-heterocyclylphenyl) isothiourea, -isourea, -guanidine and -amidine herbicidal agents” (Intellectual Property Department, BASF Aktiengesellschaft, priority 1998, published 2002).

Columns and labels:
GALAP (Galium) = assay: Postemergence herbicidal evaluation; type: in vivo, Galium aparine; settings: postemergence
Outline: (§1)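 Visual 0-9 injury score (stand, vigor, malformation, size, chlorosis, appearance vs untreated) taken four to five weeks post-spray, averaged across repeat tests. Test plants about two weeks old; foliar spray of acetone/water (1:1) with 0.5% surfactant delivering ~0.0156-0.500 kg active/ha.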

[1] = test system: IPOHE (Morningglory, Ivyleaf); assay: Postemergence herbicidal evaluation; type: in vivo, Ipomoea hederacea; settings: postemergence
Outline: as §1

SETVI (Foxtail, Green) [2] = assay: Postemergence herbicidal evaluation; type: in vivo, Setaria viridis; settings: postemergence
Outline: as §1

[3] = test system: TRZAWR (Wheat, Winter, cv Riband); assay: Postemergence herbicidal evaluation; type: in vivo, Triticum aestivum; settings: postemergence
Outline: as §1

ABUTH (Velvetleaf) = assay: Preemergence herbicidal evaluation; type: in vivo, Abutilon theophrasti; settings: preemergence, rated 4-5 weeks after treatment, 0-9 scale
Outline: (§2)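 Rating at 4–5 wk post-spray on a 0–9 visual scale vs control. Application: aqueous acetone, ~0.0156–0.500 kg/ha, to soil surface after seeding, preemergence.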

[4] = test system: IPOHE (Morningglory, Ivyleaf); assay: Preemergence herbicidal evaluation; type: in vivo, Ipomoea hederacea; settings: preemergence, rated 4-5 weeks after treatment, 0-9 scale
Outline: as §2

ECHCG (Barnyardgrass) = assay: Preemergence herbicidal evaluation; type: in vivo, Echinochloa crus-galli; settings: preemergence, rated 4-5 weeks after treatment, 0-9 scale
Outline: as §2

SETVI (Foxtail, Green) [5] = assay: Preemergence herbicidal evaluation; type: in vivo, Setaria viridis; settings: preemergence, rated 4-5 weeks after treatment, 0-9 scale
Outline: as §2

ZEAMX (Corn, Field) = assay: Preemergence herbicidal evaluation; type: in vivo, Zea mays; settings: preemergence, rated 4-5 weeks after treatment, 0-9 scale
Outline: as §2

[6] = test system: ECHORC (Watergrass (Calif.)); assay: Preemergence weed control under flooded paddy conditions; type: in vivo, Echinochloa oryzoides; settings: rated 3-4 weeks after treatment
Outline: (§3)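 Silt loam, seeds in top 0.5 cm; flood held 1.5-3 cm; test cpd as acetone/water 50/50 into flood water, ~0.0313-0.500 kg/ha a.i.; greenhouse 3-4 wk; visual 0-9 score vs control.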

CYPIR (Rice Flatsedge) = assay: as above; type: in vivo, Cyperus iria; settings: rated 3-4 weeks after treatment
Outline: as §3

MOOVA (Monochoria) = assay: as above; type: in vivo, Monochoria vaginalis; settings: rated 3-4 weeks after treatment
Outline: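 First, seeds or propagules go into the top 0.5 cm of silt loam; next, water is held 1.5 to 3 cm over the soil; then compound (50/50 acetone/water) is pipetted into it at about 0.0313 to 0.500 kg/ha; finally plants are rated visually 0-9 after three to four weeks.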

[7] = test system: ECHORC (Watergrass (Calif.)); assay: Postemergence weed control under flooded paddy conditions; type: in vivo, Echinochloa oryzoides; settings: postemergence weeds, rated 3 to 4 weeks after treatment
Outline: (§4)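 With weeds 3 to 5 cm tall and rice at the 1.5 to 2.5 leaf stage, containers were flooded and water held 1.5 to 3 cm above soil. Compounds in 50/50 v/v aqueous/acetone went into the flood water at about 0.0313 to 0.500 kg/ha a.i. Effects were visually rated 0–9 against controls after three to four weeks in the greenhouse.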

[8] = test system: SAGPY (Arrowhead (Pygmaea)); assay: as above; type: in vivo, Sagittaria pygmaea; settings: postemergence weeds, rated 3 to 4 weeks after treatment
Outline: as §4

C=CCN1C(=O)C(CC(=O)OC(C)C(=O)OCC)SC1=Nc1cc(-n2c(=O)ccn(C)c2=O)c(F)cc1Cl [Compound 94, 3-Allyl-2-{{2-chloro-5-[3,6-dihydro-3-methyl-2,6-dioxo-1(2H)-pyrimidinyl]-4-fluorophenyl}imino}-4-oxo-5-thiazolidineacetic acid, ester with ethyl lactate, (R,S)-]
4.0: GALAP herbicidal rating (GALAP (Galium); rate 0.0315 kg/ha) | GALAP herbicidal rating (GALAP (Galium); rate 0.0630 kg/ha) | SETVI rating (SETVI (Foxtail, Green) [5]; 0.1250 kg/ha) | CYPIR herbicidal effect rating (CYPIR (Rice Flatsedge); 0.1250 kg/ha) | CYPIR herbicidal effect rating (CYPIR (Rice Flatsedge); 0.2500 kg/ha)
7.0: ECHORC herbicidal effect rating ([6]; 0.2500 kg/ha) | Herbicidal rating ECHORC ([7]; Rate 0.2500 kg/ha)
3.0: GALAP herbicidal rating (GALAP (Galium); rate 0.0158 kg/ha) | CYPIR herbicidal effect rating (CYPIR (Rice Flatsedge); 0.0625 kg/ha)
2.0: ECHORC herbicidal effect rating ([6]; 0.1250 kg/ha) | Herbicidal rating ECHORC ([7]; Rate 0.1250 kg/ha)
5.0: Herbicidal rating SAGPY ([8]; Rate 0.1250 kg/ha)
0.0: ABUTH rating (ABUTH (Velvetleaf); 0.0156 kg/ha) | IPOHE rating ([4]; 0.0156 kg/ha) | IPOHE rating ([4]; 0.0313 kg/ha) | IPOHE rating ([4]; 0.0625 kg/ha) | ECHCG rating (ECHCG (Barnyardgrass); 0.0156 kg/ha) | ECHCG rating (ECHCG (Barnyardgrass); 0.0313 kg/ha) | ECHCG rating (ECHCG (Barnyardgrass); 0.0625 kg/ha) | ECHCG rating (ECHCG (Barnyardgrass); 0.1250 kg/ha) | ECHCG rating (ECHCG (Barnyardgrass); 0.2500 kg/ha) | SETVI rating (SETVI (Foxtail, Green) [5]; 0.0156 kg/ha) | SETVI rating (SETVI (Foxtail, Green) [5]; 0.0313 kg/ha) | SETVI rating (SETVI (Foxtail, Green) [5]; 0.0625 kg/ha) | ZEAMX rating (ZEAMX (Corn, Field); 0.0156 kg/ha) | ZEAMX rating (ZEAMX (Corn, Field); 0.0313 kg/ha) | ZEAMX rating (ZEAMX (Corn, Field); 0.0625 kg/ha) | ZEAMX rating (ZEAMX (Corn, Field); 0.1250 kg/ha) | ECHORC herbicidal effect rating ([6]; 0.0313 kg/ha) | ECHORC herbicidal effect rating ([6]; 0.0625 kg/ha) | CYPIR herbicidal effect rating (CYPIR (Rice Flatsedge); 0.0313 kg/ha) | Herbicidal rating ECHORC ([7]; Rate 0.0313 kg/ha) | Herbicidal rating ECHORC ([7]; Rate 0.0625 kg/ha) | Herbicidal rating SAGPY ([8]; Rate 0.0313 kg/ha) | Herbicidal rating SAGPY ([8]; Rate 0.0625 kg/ha)
9.0: IPOHE herbicidal rating ([1]; rate 0.0158 kg/ha) | IPOHE herbicidal rating ([1]; rate 0.0315 kg/ha) | IPOHE herbicidal rating ([1]; rate 0.0630 kg/ha) | SETVI herbicidal rating (SETVI (Foxtail, Green) [2]; rate 0.0158 kg/ha) | SETVI herbicidal rating (SETVI (Foxtail, Green) [2]; rate 0.0315 kg/ha) | SETVI herbicidal rating (SETVI (Foxtail, Green) [2]; rate 0.0630 kg/ha) | TRZAWR herbicidal rating ([3]; rate 0.0315 kg/ha) | ABUTH rating (ABUTH (Velvetleaf); 0.0313 kg/ha) | ABUTH rating (ABUTH (Velvetleaf); 0.0625 kg/ha) | ABUTH rating (ABUTH (Velvetleaf); 0.1250 kg/ha) | ABUTH rating (ABUTH (Velvetleaf); 0.2500 kg/ha) | IPOHE rating ([4]; 0.1250 kg/ha) | IPOHE rating ([4]; 0.2500 kg/ha) | SETVI rating (SETVI (Foxtail, Green) [5]; 0.2500 kg/ha) | MOOVA herbicidal effect rating (MOOVA (Monochoria); 0.0313 kg/ha) | MOOVA herbicidal effect rating (MOOVA (Monochoria); 0.0625 kg/ha) | MOOVA herbicidal effect rating (MOOVA (Monochoria); 0.1250 kg/ha) | MOOVA herbicidal effect rating (MOOVA (Monochoria); 0.2500 kg/ha) | Herbicidal rating SAGPY ([8]; Rate 0.2500 kg/ha)
6.0: TRZAWR herbicidal rating ([3]; rate 0.0158 kg/ha) | ZEAMX rating (ZEAMX (Corn, Field); 0.2500 kg/ha)
8.0: TRZAWR herbicidal rating ([3]; rate 0.0630 kg/ha)
